The text below walks through data of ChEMBL document CHEMBL1201862, “PubChem BioAssay data set” (2004).

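Briefly, cells in 96-well plates were exposed to five compound concentrations for 48 h, and endpoints were estimated by linear interpolation. The concentration for 50% growth inhibition is given as GI50.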 Activity calls are given as the source filed them. No stated cut-off is given here; in the data, active = GI50 up to about 1.1 µM and inactive = higher.

Some test systems named below: NCI-H23; SW-620; RXF 393; MDA-MB-435; BT-549; A498; SK-MEL-5; HOP-92; SK-OV-3; SR; SF-268; ACHN; OVCAR-8; U-251; CAKI-1; DU-145; CCRF-CEM; NCI-H226; KM12.
Holding throughout (experiment): growth of human tumour cells (NCI), 48 h

For the compound `O=C1CSc2ccnc(=O)n21`, the GI50 with NCI-H23, with SW-620, in the test with RXF 393, in the test on MDA-MB-435, in the test on BT-549 and in the test with A498 was > 100 µM (inactive) throughout. In addition, the GI50 in the test on SK-MEL-5, in the test with HOP-92, in the test on SK-OV-3, with SR, in the test on SF-268 and in the test with ACHN was > 100 µM (inactive) in each case. For the same compound, the GI50 in the test with OVCAR-8, in the test on U-251, in the test with CAKI-1, in the test with DU-145 and with CCRF-CEM was > 100 µM (inactive) in each case.

For `COc1cc(C2c3c(ccc4ccccc34)C(=O)C3CCC(=O)N32)cc(OC)c1O` (stereo not given), the GI50 in the test with NCI-H23, with SW-620, in the test on RXF 393, with NCI-H226, with MDA-MB-435 and in the test with BT-549 was > 25 µM (inactive) throughout. Moreover, the GI50 in the test with A498, in the test with HOP-92, in the test with SK-OV-3, in the test on SR, in the test with ACHN and with KM12 was > 25 µM (inactive) in each case. Besides, the GI50 with OVCAR-8 is > 25 µM (inactive); in the test on U-251 it was > 25 µM (inactive); in the test on DU-145, > 25 µM (inactive); with CCRF-CEM it was 19.9 µM (inactive).

On to `O=C(O)CNC(=O)C1NC(C(F)(F)F)(C(F)(F)F)OC1(C(F)(F)F)C(F)(F)F` (stereo not given), for which the GI50 in the test with NCI-H23, in the test on SW-620, in the test with RXF 393, with NCI-H226, in the test with MDA-MB-435 and in the test with BT-549 was > 100 µM (inactive) in each case. Moreover, the GI50 in the test on A498, with SK-MEL-5, with HOP-92, in the test with SK-OV-3, with SR and with SF-268 was > 100 µM (inactive) throughout. Also, the GI50 in the test on ACHN, in the test with KM12, in the test on OVCAR-8, in the test with U-251, in the test on CAKI-1 and in the test on DU-145 was > 100 µM (inactive) throughout.

As to `COc1ccc2c(c1)CC[C@@H]1[C@@H]2CC[C@]2(C)C(=O)/C(=C/c3ccc(OC)c(OC)c3)C[C@@H]12`, the GI50 in the test with NCI-H23 was 97.9 µM (inactive); in the test on SW-620 it was > 100 µM (inactive); in the test on RXF 393 it was > 100 µM (inactive); with MDA-MB-435, > 100 µM (inactive); with BT-549, > 100 µM (inactive); with A498, > 100 µM (inactive). Further, the GI50 with SK-MEL-5 is > 100 µM (inactive); in the test with HOP-92 it was 97.5 µM (inactive); with SK-OV-3 it was > 100 µM (inactive); with SR, 5.07 µM (inactive); in the test on ACHN, > 100 µM (inactive); in the test on KM12, > 100 µM (inactive). For the same compound, the GI50 in the test on U-251, in the test on CAKI-1 and with DU-145 was > 100 µM (inactive) each time.

Turning to `N=C(N)NC(=N)Nc1c(F)c(F)c(F)c(F)c1F`, the GI50 is 87.1 µM (inactive) with NCI-H23; > 100 µM (inactive) in the test on SW-620; > 100 µM (inactive) in the test with RXF 393; > 100 µM (inactive) with NCI-H226; > 100 µM (inactive) in the test with MDA-MB-435; 92.3 µM (inactive) in the test on BT-549. Also, the GI50 is > 100 µM (inactive) with A498; 44.8 µM (inactive) in the test on SK-MEL-5; 36.7 µM (inactive) in the test on HOP-92; > 100 µM (inactive) in the test on SK-OV-3; 17.3 µM (inactive) in the test with SR; > 100 µM (inactive) in the test with SF-268. Moreover, the GI50 with ACHN, in the test on KM12, with OVCAR-8, with U-251, in the test with CAKI-1 and in the test with DU-145 was > 100 µM (inactive) in each case.

Turning to `O=C1C(=Cc2ccccc2[N+](=O)[O-])N=C(c2ccccc2)N1n1c(-c2ccccc2)nc2ccccc2c1=O`, the GI50 is 20.2 µM (inactive) in the test on NCI-H23; 32.7 µM (inactive) in the test on SW-620; 16.1 µM (inactive) in the test with RXF 393; 32.5 µM (inactive) with NCI-H226; 32.4 µM (inactive) in the test on MDA-MB-435; 41.8 µM (inactive) with BT-549. Besides, the GI50 with SK-MEL-5 is 31.5 µM (inactive); with HOP-92, 15.2 µM (inactive); with SK-OV-3, 40.7 µM (inactive); in the test with SR, 37.7 µM (inactive); with SF-268, 30.3 µM (inactive); in the test with ACHN it was 30.8 µM (inactive). For the same compound, the GI50 in the test with KM12 was 26.9 µM (inactive); in the test on OVCAR-8, 24.7 µM (inactive); in the test on U-251, 30 µM (inactive); in the test on CAKI-1 it was 39.1 µM (inactive); in the test with DU-145, 33.5 µM (inactive); in the test on CCRF-CEM, 31 µM (inactive).

For the compound `CC(C)(Cl)C(Br)CC/C(=C/CCl)CBr.CC(C)(Cl)C(Br)CC/C(=C\CCl)CBr` (stereo not given), the GI50 in the test with NCI-H23 was 1.91 µM (inactive); in the test with SW-620, 1.92 µM (inactive); with RXF 393, 2.62 µM (inactive); in the test with NCI-H226 it was 18.7 µM (inactive); in the test on MDA-MB-435 it was 2 µM (inactive); with BT-549 it was 3.05 µM (inactive). For the same compound, the GI50 in the test on A498 is 4.94 µM (inactive); in the test on SK-MEL-5 it was 3.1 µM (inactive); in the test with HOP-92 it was 2.07 µM (inactive); in the test with SK-OV-3, 16.9 µM (inactive); in the test with SR it was 1.29 µM (inactive); in the test with SF-268, 1.8 µM (inactive). The GI50 in the test on ACHN was 2.77 µM (inactive); in the test on KM12, 1.83 µM (inactive); with OVCAR-8 it was 2.06 µM (inactive); in the test on U-251, 2.21 µM (inactive); with DU-145, 3.32 µM (inactive); in the test on CCRF-CEM, 1.32 µM (inactive).

For the compound `CC(C)=CCC/C(C)=C/COC(C)(C)C1=CCC(C)CC1.CC(C)=CCC/C(C)=C/COC1CC(C)CCC1=C(C)C` (stereo not given), the GI50 in the test with NCI-H23, in the test on SW-620, in the test with RXF 393, in the test on MDA-MB-435, in the test on BT-549 and with A498 was > 100 µM (inactive) in each case. For the same compound, the GI50 was > 100 µM (inactive) in the test with SK-MEL-5; > 100 µM (inactive) in the test on HOP-92; > 100 µM (inactive) in the test on SK-OV-3; 18.9 µM (inactive) with SR; > 100 µM (inactive) in the test with SF-268; > 100 µM (inactive) with ACHN. For the same compound, the GI50 with KM12, in the test on OVCAR-8, with U-251, with CAKI-1 and in the test on DU-145 was > 100 µM (inactive) throughout.

`Cn1c(-c2ccccc2)cc(-c2ccc3c(c2)OCO3)c1-c1cccs1`: the GI50 with NCI-H23 is 64.7 µM (inactive); in the test on SW-620, > 100 µM (inactive); in the test with RXF 393 it was > 100 µM (inactive); with NCI-H226 it was > 100 µM (inactive); with MDA-MB-435, > 100 µM (inactive); in the test on BT-549 it was > 100 µM (inactive). The GI50 in the test with A498, in the test on SK-MEL-5, with HOP-92, with SK-OV-3, in the test on SR and in the test with SF-268 was > 100 µM (inactive) in each case. The GI50 with ACHN, with KM12, in the test with OVCAR-8, with U-251, in the test on DU-145 and in the test on CCRF-CEM was > 100 µM (inactive) throughout.

Take `O=[N+]([O-])c1ccc(/C=C\c2ccc3c(c2)OCO3)c([N+](=O)[O-])c1`: the GI50 with NCI-H23 is 21.7 µM (inactive); in the test on SW-620, 17.1 µM (inactive); with RXF 393 it was 0.0316 µM (active); in the test with MDA-MB-435 it was 8.43 µM (inactive); in the test with BT-549, 16.4 µM (inactive); with A498 it was 19 µM (inactive). Besides, the GI50 is 19 µM (inactive) with SK-MEL-5; 21.2 µM (inactive) in the test on HOP-92; 18.7 µM (inactive) in the test on SK-OV-3; 8 µM (inactive) with SR; 23 µM (inactive) in the test on SF-268; 16.6 µM (inactive) in the test on ACHN. The GI50 with KM12 was 15.3 µM (inactive); in the test on OVCAR-8, 19 µM (inactive); in the test with U-251 it was 14.2 µM (inactive); in the test on CAKI-1, 25 µM (inactive); in the test with DU-145 it was 18.3 µM (inactive); in the test on CCRF-CEM, 18.2 µM (inactive).

Turning to `C[C@H](OC(=O)/C=C/c1ccc(O)c(O)c1)[C@H](C)OC(=O)/C=C/c1ccc(O)c(O)c1`, the GI50 in the test with NCI-H23 was 4.29 µM (inactive); in the test on SW-620, 3.93 µM (inactive); with RXF 393, 6.87 µM (inactive); in the test on MDA-MB-435 it was 4.84 µM (inactive); in the test with BT-549, 10.4 µM (inactive); with A498, 17.1 µM (inactive). Also, the GI50 was 6.12 µM (inactive) with SK-MEL-5; 15 µM (inactive) in the test with HOP-92; 16.3 µM (inactive) in the test with SK-OV-3; 8.18 µM (inactive) in the test with SR; 7.43 µM (inactive) with SF-268; 6.11 µM (inactive) with ACHN. For the same compound, the GI50 is 5.25 µM (inactive) in the test on KM12; 6.15 µM (inactive) in the test with OVCAR-8; 10.8 µM (inactive) with U-251; 7.89 µM (inactive) in the test with CAKI-1; 11.6 µM (inactive) in the test with DU-145.
